This passage reports melting point, Ki and IC50 results from US9255101B2 (BIOPROJECT, priority 2012, dated 2016).

Counter-ions that a name gives are not always drawn. Where only a bound is given, the exact number is not on record here.

Data set [1] concerns the target T1, human H4 receptor (Homo sapiens, UniProt Q9H3N8). Description: biochemical.
For data set [2], the target named is T1, human H4 receptor. Description: biochemical. The source holds these as a separate data set.
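Throughout, for IC50: membranes from SH-SY5Y cells with stable human H4 receptor expression, incubated with GDP 10 µM, radioactivity retained on filters counted by liquid scintillation.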
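Throughout, for Ki: radioligand displacement of a [3H]-labelled ligand from membranes of CHO cells stably expressing human H4 receptor, bound radioactivity counted on filters by liquid scintillation.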

T1 sequence (Q9H3N8 whole entry): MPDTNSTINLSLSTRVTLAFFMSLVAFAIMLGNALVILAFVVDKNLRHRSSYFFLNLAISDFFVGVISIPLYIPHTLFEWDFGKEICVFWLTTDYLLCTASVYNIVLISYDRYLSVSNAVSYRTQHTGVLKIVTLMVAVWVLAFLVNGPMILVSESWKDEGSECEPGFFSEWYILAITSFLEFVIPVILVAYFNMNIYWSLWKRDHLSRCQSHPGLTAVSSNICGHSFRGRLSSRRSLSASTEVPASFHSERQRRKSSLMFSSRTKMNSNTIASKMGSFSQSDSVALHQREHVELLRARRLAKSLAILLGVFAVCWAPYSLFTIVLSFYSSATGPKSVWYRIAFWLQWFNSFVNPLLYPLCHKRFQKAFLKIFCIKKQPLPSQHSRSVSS

For the molecule `CN1CCC(OC2c3ccccc3CCn3cc(I)nc32)CC1` (centres unmarked) [Example 2, 2-iodo-4-(1-methylpiperidin-4-yloxy)-9,10-dihydro-4H-3,10a-diaza-benzo[f]azulene], the melting point (as a rule, the temperature, or range, at which the solid turns liquid) amounted to 126 °C. Moreover, the Ki (in general, a measure of affinity in units of concentration, obtained from inhibition or displacement) at human H4 receptor [1] is less than 300 nM.
Take `CN1CCC(OC2c3ccccc3CCn3c(I)cnc32)CC1` (centres unmarked) [Example 3, 1-iodo-4-(1-methylpiperidin-4-yloxy)-9,10-dihydro-4H-3,10a-diaza-benzo[f]azulene]: the melting point came out at 163 °C. Moreover, the Ki on human H4 receptor [1] was less than 300 nM.
For `CN1CC(COC2c3ccccc3CCn3cc(I)nc32)C1` (centres unmarked) [Example 7, 2-Iodo-4-(1-methylazetidin-3-ylmethoxy)-9,10-dihydro-4H-3,10a-diaza-benzo[f]azulene], in that order: 100 °C and less than 1000 nM.
In the same order, the values of `CN1CCC(OC2c3ccccc3CCn3cc(-c4ccc(N)cc4)nc32)CC1` (centres unmarked) [Example 16, 4-[4-(1-methylpiperidin-4-yloxy)-9,10-dihydro-4H-3,10a-diaza-benzo[f]azulen-2-yl]-phenylamine] are 197 °C and less than 1000 nM.
In the same order, the values of `CN1CCC(OC2c3ccccc3CCn3cc(-c4ccc(NC(=O)C(C)(C)C)cc4)nc32)CC1` (centres unmarked) [Example 58, 2,2-dimethyl-N-{4-[4-(1-methylpiperidin-4-yloxy)-9,10-dihydro-4H-3,10a-diaza-benzo[f]azulen-2-yl]-phenyl}-propionamide] are 120 °C and less than 300 nM.
In the case of `CCCNC(=O)Nc1ccc(-c2cn3c(n2)C(OC2CCN(C)CC2)c2ccccc2CC3)cc1` (centres unmarked) [Example 60, 1-{4-[4-(1-methylpiperidin-4-yloxy)-9,10-dihydro-4H-3,10a-diaza-benzo[f]azulen-2-yl]-phenyl}-3-propyl-urea], the melting point amounted to 130 °C. On human H4 receptor [1], this molecule showed an inhibitory constant (Ki) of less than 300 nM.
For `Cc1c(-c2ccc(N3CCOC3=O)cc2)nc2n1CCc1ccccc1C2OC1CCN(C)CC1` (centres unmarked) [Example 131, 3-{4-[1-methyl-4-(1-methylpiperidin-4-yloxy)-9,10-dihydro-4H-3,10a-diaza-benzo[f]azulen-2-yl]-phenyl}-oxazolidin-2-one], in that order: 214 °C and less than 300 nM.
For `Cc1c(I)nc2n1CCc1ccccc1C2OC1CCN(C)CC1` (centres unmarked) [Example 133, 2-iodo-1-methyl-4-(1-methylpiperidin-4-yloxy)-9,10-dihydro-4H-3,10a-diaza-benzo[f]azulene], in that order: 59 °C and less than 300 nM.
For `Cc1c(-c2ccsc2)nc2n1CCc1ccccc1C2OC1CCN(C)CC1` (centres unmarked) [Example 148, 1-methyl-4-(1-methylpiperidin-4-yloxy)-2-thiophen-3-yl-9,10-dihydro-4H-3,10a-diaza-benzo[f]azulene], in that order: 74 °C and less than 30 nM.
`COc1ccccc1-c1nc2n(c1C)CCc1ccccc1C2OC1CCN(C)CC1` (centres unmarked) [Example 149, 2-(2-methoxyphenyl)-1-methyl-4-(1-methylpiperidin-4-yloxy)-9,10-dihydro-4H-3,10a-diaza-benzo[f]azulene] came in with a melting point of 139 °C. The molecule further gave an inhibition constant (Ki) on human H4 receptor [1] of less than 300 nM.
For `Cc1c(-c2ccc(F)cc2)nc2n1CCc1ccccc1C2OC1CCN(C)CC1` (centres unmarked) [Example 154, 2-(4-fluorophenyl)-1-methyl-4-(1-methylpiperidin-4-yloxy)-9,10-dihydro-4H-3,10a-diaza-benzo[f]azulene], in that order: 168 °C and less than 30 nM.
For `Cc1c(-c2ccc(Cl)cc2)nc2n1CCc1ccccc1C2OC1CCN(C)CC1` (centres unmarked) [Example 155, 2-(4-chlorophenyl)-1-methyl-4-(1-methylpiperidin-4-yloxy)-9,10-dihydro-4H-3,10a-diaza-benzo[f]azulene], in that order: 158 °C and less than 30 nM.
Take `Cc1ccc(-c2nc3n(c2C)CCc2ccccc2C3OC2CCN(C)CC2)c(Cl)c1` (centres unmarked) [Example 157, 2-(2-chloro-4-methylphenyl)-1-methyl-4-(1-methylpiperidin-4-yloxy)-9,10-dihydro-4H-3,10a-diaza-benzo[f]azulene]: the melting point was found to be 133 °C. This molecule yielded an inhibitory constant (Ki) at human H4 receptor [1] of less than 30 nM.
For `CC(=O)NCCSc1ccc(-c2nc3n(c2C)CCc2ccccc2C3OC2CCN(C)CC2)cc1` (centres unmarked) [Example 163, N-(2-{4-[1-methyl-4-(1-methylpiperidin-4-yloxy)-9,10-dihydro-4H-3,10a-diaza-benzo[f]azulen-2-yl]-phenylsulfanyl}-ethyl)-acetamide oxalate], the concentration for half-maximal inhibition (IC50) (commonly the concentration that inhibits the measured activity by half) on human H4 receptor [2] was less than 30 nM. The molecule also showed a Ki at human H4 receptor [1] of less than 30 nM.
`Cc1c(-c2ccc(SCc3ccccc3)cc2)nc2n1CCc1ccccc1C2OC1CCN(C)CC1` (centres unmarked) [Example 164, 2-(4-benzylsulfanylphenyl)-1-methyl-4-(1-methylpiperidin-4-yloxy)-9,10-dihydro-4H-3,10a-diaza-benzo[f]azulene oxalate] yielded an IC50 against human H4 receptor [2] of less than 30 nM. On human H4 receptor [1], the Ki is less than 30 nM.
In turn, `Cc1c(-c2ccc(SCc3ccco3)cc2)nc2n1CCc1ccccc1C2OC1CCN(C)CC1` (centres unmarked) [Example 167, 2-[4-(furan-2-ylmethylsulfanyl)-phenyl]-1-methyl-4-(1-methylpiperidin-4-yloxy)-9,10-dihydro-4H-3,10a-diaza-benzo[f]azulene oxalate] displayed an IC50 against human H4 receptor [2] of less than 30 nM. Moreover, the inhibitory constant (Ki) at human H4 receptor [1] is less than 30 nM.
In the case of `Cc1c(-c2ccc(C3=CCN(C(=O)OC(C)(C)C)CC3)cc2)nc2n1CCc1ccccc1C2OC1CCN(C)CC1` (centres unmarked) [Example 168, 4-{4-[1-methyl-4-(1-methyl-piperidin-4-yloxy)-9,10-dihydro-4H-3,10a-diaza-benzo[f]azulen-2-yl]-phenyl}-3,6-dihydro-2H-pyridine-1-carboxylic acid tert-butyl ester], the melting point stood at 171 °C. The molecule also registered an inhibitory constant (Ki) at human H4 receptor [1] of less than 30 nM.
With `CN1CCC(OC2c3ccccc3CCn3cc(-c4ccc(CN5CCCCCC5=O)cc4)nc32)CC1` (centres unmarked) [Example 188, 1-{4-[4-(1-methylpiperidin-4-yloxy)-9,10-dihydro-4H-3,10a-diaza-benzo[f]azulen-2-yl]benzyl}-azepan-2-one], at human H4 receptor [2], the 50% inhibitory concentration (IC50) was less than 300 nM. The Ki on human H4 receptor [1] is less than 300 nM.
The molecule `Cc1c(C(O)c2ccccc2)nc2n1CCc1ccccc1C2OC1CCN(C)CC1.O=CO` (centres unmarked) [Example 201, [1-methyl-4-(1-methylpiperidin-4-yloxy)-9,10-dihydro-4H-3,10a-diaza-benzo[f]azulen-2-yl]phenylmethanol, formic acid salt] had a melting point of 85 °C. Further, the Ki on human H4 receptor [1] was less than 1000 nM.
For `Cc1c(C(=O)c2ccccc2)nc2n1CCc1ccccc1C2OC1CCN(C)CC1.O=CO` (centres unmarked) [Example 202, [1-methyl-4-(1-methylpiperidin-4-yloxy)-9,10-dihydro-4H-3,10a-diaza-benzo[f]azulen-2-yl]phenylmethanone, formic acid salt], in that order: 71 °C and less than 1000 nM.
For `Cc1c(C(=O)N(C)Cc2ccccc2)nc2n1CCc1ccccc1C2OC1CCN(C)CC1` (centres unmarked) [Example 203, 1-methyl-4-(1-methylpiperidin-4-yloxy)-9,10-dihydro-4H-3,10a-diaza-benzo[f]azulene-2-carboxylic acid benzylmethylamide], in that order: 61 °C and less than 1000 nM.
In the same order, the values of `Cc1c(C(=O)N(C)c2ccccc2)nc2n1CCc1ccccc1C2OC1CCN(C)CC1` (centres unmarked) [Example 204, 1-methyl-4-(1-methylpiperidin-4-yloxy)-9,10-dihydro-4H-3,10a-diaza-benzo[f]azulene-2-carboxylic acid methylphenylamide] are 75 °C and less than 1000 nM.
`Cc1c(-c2ccc(NC(=S)NC(C)C)cc2)nc2n1CCc1ccccc1C2OC1CCN(C)CC1` (centres unmarked) [Example 206, 1-isopropyl-3-{4-[1-methyl-4-(1-methylpiperidin-4-yloxy)-9,10-dihydro-4H-3,10a-diazabenzo[f]azulen-2-yl]-phenyl}-thiourea] gave an IC50 at human H4 receptor [2] of less than 30 nM. The molecule further returned an inhibition constant Ki at human H4 receptor [1] of less than 30 nM.
As for `CN1CCC(OC2c3ccccc3CCn3c2nc(I)c3I)CC1` (centres unmarked) [Example 219, 1,2-diiodo-4-(1-methylpiperidin-4-yloxy)-9,10-dihydro-4H-3,10a-diaza-benzo[f]azulene], at human H4 receptor [2], the IC50 is less than 30 nM. On human H4 receptor [1], this molecule came in with an inhibitory constant (Ki) of less than 30 nM.
Molecule `Cc1c(C(=O)NCc2ccccc2)nc2n1CCc1ccccc1C2OC1CCN(C)CC1` (centres unmarked) [Example 222, 1-methyl-4-(1-methylpiperidin-4-yloxy)-9,10-dihydro-4H-3,10a-diaza-benzo[f]azulene-2-carboxylic acid benzylamide] registered a melting point of 161 °C.
`Cc1c(C=CC(C)(C)C)nc2n1CCc1ccccc1C2OC1CCN(C)CC1` (centres unmarked) [Example 225, 2-(3,3-dimethyl-but-1-enyl)-1-methyl-4-(1-methylpiperidin-4-yloxy)-9,10-dihydro-4H-3,10a-diaza-benzo[f]azulene]: the IC50 against human H4 receptor [2] was less than 30 nM. In addition, the Ki on human H4 receptor [1] was less than 30 nM.
Take `Cc1c(C2=CCCCC2)nc2n1CCc1ccccc1C2OC1CCN(C)CC1` (centres unmarked) [Example 226, 2-cyclohex-1-enyl-1-methyl-4-(1-methylpiperidin-4-yloxy)-9,10-dihydro-4H-3,10a-diaza-benzo[f]azulene]: the IC50 on human H4 receptor [2] is less than 30 nM. The Ki at human H4 receptor [1] is less than 30 nM.
Take `CN1CCC(OC2c3ccccc3CCn3c2nc(-c2ccccc2)c3C(N)=O)CC1` (centres unmarked) [Example 254, 4-(1-methylpiperidin-4-yloxy)-2-phenyl-9,10-dihydro-4H-3,10a-diaza-benzo[f]azulene-1-carboxylic acid amide]: the concentration for half-maximal inhibition (IC50) on human H4 receptor [2] is less than 300 nM. At human H4 receptor [1], this molecule yielded an inhibitory constant (Ki) of less than 300 nM.
As to `CN1CCC(OC2c3ccccc3CCn3c2nc(-c2ccccc2)c3C(F)(F)F)CC1` (centres unmarked) [Example 255, 4-(1-methylpiperidin-4-yloxy)-2-phenyl-1-trifluoromethyl-9,10-dihydro-4H-3,10a-diaza-benzo[f]azulene], at human H4 receptor [2], the IC50 was less than 300 nM. On human H4 receptor [1], this molecule gave a Ki of less than 30 nM.
Regarding `C=C(C)Cc1nc2n(c1C#N)CCc1ccccc1C2OC1CCN(C)CC1` (centres unmarked) [Example 259, 2-(2-methylallyl)-4-(1-methylpiperidin-4-yloxy)-9,10-dihydro-4H-3,10a-diaza-benzo[f]azulene-1-carbonitrile], at human H4 receptor [2], the IC50 was less than 300 nM. This molecule yielded a Ki on human H4 receptor [1] of less than 300 nM.
